Laboratory results from ChEMBL document CHEMBL5370616, “Novel Nitric Oxide Donor-Azole Conjugation Strategy for Efficient Treatment of Cryptococcus neoformans Infections” (J Med Chem, 2023).
Values after ≈ are worked out from the molar mass of the structure shown. Active and inactive are the calls of the source. The calls are words filed in the database; no cut-off is given here.

Columns and labels:
Cryptococcus neoformans [1] = assay: Antifungal activity against Cryptococcus neoformans H99 assessed as reduction in fungal growth incubated for 72 hrs by CLSI protocol based microplate reader analysis; format: functional
Cryptococcus neoformans [2] = assay: Fungicidal activity against Cryptococcus neoformans H99 assessed as reduction in colony forming units at 4 to 8 ug/ml incubated upto 72 hrs by time-kill assay; format: functional, organism-based; settings: dose 4-8 µg/ml
Cryptococcus neoformans [3] = assay: In vivo antifungal activity against Cryptococcus neoformans H99 infected in cryptococcal meningitis ICR mouse model assessed as reduction in irregular cavities in brain at 1 mg/kg,INH QD for 5 days by H and E staining based microscopic analysis; format: functional, organism-based; settings: time 5.0 day
Cryptococcus neoformans [4] = assay: Inhibition of CYP51 in Cryptococcus neoformans H99 assessed as increase in lanosterol level at 0.125 ug/ml incubated for 24 hrs by GC-MS analysis (Rvb= 6.24%); settings: dose 0.125 µg/ml
Cryptococcus neoformans [5] = assay: Antifungal activity against Cryptococcus neoformans H99 assessed as reduction in fungal growth at 0.25 to 8 ug/ml incubated upto 72 hrs by microplate reader analysis; format: functional, organism-based; settings: dose 0.25-8 µg/ml
Cryptococcus neoformans [6] = assay: In vivo antifungal activity against Cryptococcus neoformans H99 infected in cryptococcal meningitis ICR mouse model assessed as reduction in neuronal necrosis at 1 mg/kg,INH QD for 5 days by H and E staining based microscopic analysis; format: functional, organism-based; settings: time 5.0 day
Cryptococcus neoformans [7] = assay: In vivo antifungal activity against Cryptococcus neoformans H99 infected in cryptococcal meningitis ICR mouse model assessed as reduction in organism brain invasion at 1 mg/kg,INH QD for 5 days by PAS staining based microscopic analysis; format: functional; settings: time 5.0 day
Cryptococcus neoformans [8] = assay: Disruption of preformed mature biofilm in Cryptococcus neoformans H99 assessed as removal of mature biofilm at 32 ug/ml incubated for 24 hrs by XTT reduction assay; format: functional; parameters: scale not given: the % may be the effect or the level left; settings: dose 32 µg/ml
Cryptococcus neoformans [9] = assay: Inhibition of CYP51 in Cryptococcus neoformans H99 assessed as reduction in ergosterol level at 0.125 ug/ml incubated for 24 hrs by GC-MS analysis (Rvb= 58.33%); settings: dose 0.125 µg/ml
Nakaseomyces glabratus = assay: Antifungal activity against Candida glabrata 10639 assessed as reduction in fungal growth incubated for 48 hrs by CLSI protocol based microplate reader analysis; format: functional
Cryptococcus neoformans [10] = assay: Inhibition of biofilm formation in Cryptococcus neoformans H99 at 0.25 ug/ml incubated for 24 hrs in presence of 2-phenyl-4,4,5,5-tetramethylimidazoline-l-oxyl 3-oxide by XTT reduction assay; format: functional, organism-based; settings: dose 0.25 µg/ml
Cryptococcus neoformans [11] = assay: Antifungal activity against Cryptococcus neoformans H99 assessed as reduction in melanin production at 16 ug/ml by microplate analysis; format: functional, organism-based; settings: dose 16.0 µg/ml
Cryptococcus neoformans [12] = assay: In vivo antifungal activity against Cryptococcus neoformans H99 infected in cryptococcal meningitis ICR mouse model assessed as reduction in blood vessel congestion at 1 mg/kg,INH QD for 5 days by H and E staining based microscopic analysis; format: functional, organism-based; settings: time 5.0 day
Cryptococcus neoformans [13] = assay: Inhibition of biofilm formation in Cryptococcus neoformans H99 at 0.25 ug/ml incubated for 24 hrs by XTT reduction assay; format: functional
Cryptococcus neoformans [14] = assay: Antifungal activity against Cryptococcus neoformans H99 assessed as reduction in urease production at 4 ug/ml by microplate analysis; format: functional, organism-based; settings: dose 4.0 µg/ml
Cryptococcus neoformans [15] = assay: In vivo antifungal activity against Cryptococcus neoformans H99 infected in cryptococcal meningitis ICR mouse model assessed as reduction in fungal burden in lung at 1 mg/kg,INH QD for 5 days by CFU assay; format: functional, organism-based; settings: time 5.0 day
Cryptococcus neoformans [16] = assay: Disruption of preformed mature biofilm in Cryptococcus neoformans H99 assessed as removal of mature biofilm at 0.125 ug/ml incubated for 24 hrs by XTT reduction assay; format: functional; parameters: scale not given: the % may be the effect or the level left; settings: dose 0.125 µg/ml
Cryptococcus neoformans [17] = assay: Antifungal activity against Cryptococcus neoformans H99 assessed as change in internal microstructure by observing sparse capsule at 0.125 to 4 ug/ml incubated for 8 hrs by TEM analysis; format: functional, organism-based; settings: dose 0.125-4 µg/ml
Cryptococcus neoformans [18] = assay: Inhibition of CYP51 in Cryptococcus neoformans H99 assessed as decrease in unknown sterol level at 0.125 ug/ml incubated for 24 hrs by GC-MS analysis (Rvb= 22.95%); settings: dose 0.125 µg/ml
Cryptococcus neoformans [19] = assay: Disruption of preformed mature biofilm in Cryptococcus neoformans H99 assessed as removal of mature biofilm at 0.125 to 32 ug/ml incubated for 24 hrs in presence of 2-phenyl-4,4,5,5-tetramethylimidazoline-l-oxyl 3-oxide by XTT reduction assay; format: functional, organism-based; settings: dose 0.125-32 µg/ml
Cryptococcus neoformans [20] = assay: Fungicidal activity against Cryptococcus neoformans H99 assessed as cell death by measuring red fluorescence at 8 ug/ml incubated for 12 hrs by PI staining based confocal laser scanning microscopy; format: functional, organism-based; settings: dose 8.0 µg/ml
Candida albicans [21] = assay: Antifungal activity against Candida albicans SC5314 assessed as reduction in fungal growth incubated for 48 hrs by CLSI protocol based microplate reader analysis; format: functional
Cryptococcus neoformans [22] = assay: Antifungal activity against Cryptococcus neoformans H99 assessed as change in internal microstructure by observing cell membrane damage at 0.125 to 4 ug/ml incubated for 8 hrs by TEM analysis; format: functional, organism-based; settings: dose 0.125-4 µg/ml
Cryptococcus neoformans [23] = assay: Inhibition of CYP51 in Cryptococcus neoformans H99 assessed as increase in other unknown sterol level at 0.125 ug/ml incubated for 24 hrs by GC-MS analysis (Rvb= 12.49%); settings: dose 0.125 µg/ml
[24] = Metabolic stability in Sprague-Dawley rat liver microsomes assessed as parent compound remaining at 200 uM and measured upto 120 mins by HPLC analysis; format: ADME, Microsome; settings: 2 h
Cryptococcus neoformans [25] = assay: Antifungal activity against Cryptococcus neoformans H99 assessed as reduction in number of colonies at 0.125 to 1 ug/ml incubated for 72 hrs by agar disk diffusion assay; format: functional; parameters: scale not given: the % may be the effect or the level left; settings: dose 0.125-1 µg/ml, at 0.125 to 1 µg/mL
[26] = Drug metabolism in Cryptococcus neoformans H99 assessed as NO release by measuring green fluorescence at 8 ug/ml incubated for 12 hrs by DAF-FM DA staining based confocal laser scanning microscopy; format: ADME; settings: dose 8 µg/ml
Candida albicans [27] = assay: Antifungal activity against Candida albicans 0304103 assessed as reduction in fungal growth incubated for 48 hrs by CLSI protocol based microplate reader analysis; format: functional
[28] = Metabolic stability in Sprague-Dawley rat plasma assessed as parent compound remaining at 500 uM and measured upto 120 mins by HPLC analysis; format: ADME, cell-free; settings: 2 h
Cryptococcus neoformans [29] = assay: Fungicidal activity against Cryptococcus neoformans H99 assessed as reduction in colony forming units at 8 ug/ml incubated upto 72 hrs by time-kill assay; format: functional; parameters: scale not given: the % may be the effect or the level left; settings: dose 8 µg/ml
Cryptococcus neoformans [30] = assay: In vivo antifungal activity against Cryptococcus neoformans H99 infected in cryptococcal meningitis ICR mouse model assessed as reduction in fungal burden in brain at 1 mg/kg,INH QD for 5 days by CFU assay; format: functional, organism-based; settings: time 5.0 day

SMILES: CN(Cc1ccc(OCCCOc2ccc(CC(=O)O)cc2)cc1)CC(O)(Cn1cncn1)c1ccc(F)cc1F (stereo unspecified)
- MIC80 (Cryptococcus neoformans [1]): 2 µg/mL (≈ 3.53 µM)
- Activity (Cryptococcus neoformans [2]): inactive

SMILES: CN(Cc1ccc(OCCCOc2ccc(CC(=O)OCCO[N+](=O)[O-])cc2)cc1)CC(O)(Cn1cncn1)c1ccc(F)cc1F (stereo unspecified)
- Activity (Cryptococcus neoformans [3]): Active
- inhibition (Cryptococcus neoformans [4]): 44.5%
- Activity (Cryptococcus neoformans [5]): Dose-Dependent Effect
- Activity (Cryptococcus neoformans [6]): Active
- MIC80 (Cryptococcus neoformans [1]): 0.125 µg/mL (≈ 0.191 µM)
- Activity (Cryptococcus neoformans [7]): Active
- Activity (Cryptococcus neoformans [8]): 50%
- inhibition (Cryptococcus neoformans [9]): 23.7%
- MIC80 (Nakaseomyces glabratus): 1 µg/mL (≈ 1.53 µM)
- inhibition (Cryptococcus neoformans [10]): inactive
- Activity (Cryptococcus neoformans [11]): Active
- Activity (Cryptococcus neoformans [12]): Active
- inhibition at 0.25 µg/mL (Cryptococcus neoformans [13]): > 50%
- Activity (Cryptococcus neoformans [14]): Active
- Activity (Cryptococcus neoformans [15]): Active
- Activity (Cryptococcus neoformans [16]): 25%
- Activity (Cryptococcus neoformans [17]): Dose-Dependent Effect
- inhibition (Cryptococcus neoformans [18]): 5.31%
- Activity (Cryptococcus neoformans [19]): inactive
- Activity (Cryptococcus neoformans [20]): Active
- MIC80 (Candida albicans [21]): 1 µg/mL (≈ 1.53 µM)
- Activity (Cryptococcus neoformans [22]): Active
- inhibition (Cryptococcus neoformans [23]): 26.5%
- Stability [24]: Unstable
- Activity (Cryptococcus neoformans [25]): 100%
- Drug metabolism [26]: Metabolite_Detected
- MIC80 (Candida albicans [27]): > 64 µg/mL
- Stability [28]: Unstable
- Activity (Cryptococcus neoformans [29]): 100%
- Activity (Cryptococcus neoformans [30]): Active

SMILES: CN(Cc1ccc(OCCCOc2ccc(CC(=O)NCCOc3no[n+]([O-])c3S(=O)(=O)c3ccccc3)cc2)cc1)CC(O)(Cn1cncn1)c1ccc(F)cc1F (stereo unspecified)
- MIC80 (Cryptococcus neoformans [1]): 1 µg/mL (≈ 1.2 µM)
- MIC80 (Nakaseomyces glabratus): 1 µg/mL (≈ 1.2 µM)
- MIC80 (Candida albicans [21]): 2 µg/mL (≈ 2.4 µM)
- MIC80 (Candida albicans [27]): > 64 µg/mL

SMILES: CN(Cc1ccc(OCCCOc2ccc(CC(=O)OCCCO[N+](=O)[O-])cc2)cc1)CC(O)(Cn1cncn1)c1ccc(F)cc1F (stereo unspecified)
- Activity (Cryptococcus neoformans [5]): Dose-Dependent Effect
- MIC80 (Cryptococcus neoformans [1]): 0.125 µg/mL (≈ 0.187 µM)
- MIC80 (Nakaseomyces glabratus): 1 µg/mL (≈ 1.49 µM)
- inhibition at 0.25 µg/mL (Cryptococcus neoformans [13]): > 50%
- MIC80 (Candida albicans [21]): 1 µg/mL (≈ 1.49 µM)
- MIC80 (Candida albicans [27]): > 64 µg/mL

SMILES: CN(Cc1ccc(CNCCCCCOc2no[n+]([O-])c2S(=O)(=O)c2ccccc2)cc1)CC(O)(Cn1cncn1)c1ccc(F)cc1F (stereo unspecified)
- MIC80 (Cryptococcus neoformans [1]): 2 µg/mL (≈ 2.87 µM)
- MIC80 (Nakaseomyces glabratus): 8 µg/mL (≈ 11.5 µM)
- MIC80 (Candida albicans [21]): 8 µg/mL (≈ 11.5 µM)
- MIC80 (Candida albicans [27]): > 64 µg/mL
